Holding throughout (assay type): in vivo
Experiment [1] relates to soybean rust (Phakopsora pacchyrhizi Sydow). Put plainly: Greenhouse pot test, soybean rust. The conditions noted are these: Glycine max, 168 h, read-out: Control effect (%) Soybean rust. The method, then: (§1) Test method: each of the test compounds in Table 1 was dispensed to 5 wt % emulsifiable concentrate (hereinafter referred to as 5% EC). The greenhouse pot test was used in each experiment, and the effective concentrations of each compound were illustrated in Table 1.
Soybean rust: two-leaf stage potted soybean seedling with uniform growth was selected and made foliar spray treatment with 5% EC, the blank control sprayed with clean water was additionally arranged, three replicates were carried out. After 24 h, the leaves of the host plants were inoculated with sporangial suspensions of the fungi soybean rust (Phakopsora pacchyrhizi Sydow), the plants were stored in humidity chamber (temperature 20-25° C., relative humidity>95%) and then transferred to greenhouse (25±1° C.) 8-16 h after infection. After 7 days, the screening results were investigated according to the disease incidence condition of blank control.
(§2) The investigation method: “Guidelines for the field efficacy trials of pesticides” was adopted as the grading standard, and the control effect in a unit of % was calculated based on the disease index. Disease index=Σ(number of diseased leaves at each grade×relative grade value)×100/(total number of leaves×9); Control effect (%)=(disease index of control−disease index of treated)×100/disease index of control;
(§3) The compounds provided by the present disclosure and some control compounds were tested by the same methods in the Test example 1, except that the effective concentrations of the compounds in this Test example are shown in Table 2.

Experiment [2] relates to wheat powdery mildew (Erysiphe graminis). Put plainly: Greenhouse pot test, wheat powdery mildew. The conditions noted are these: Blumeria graminis, 168 h, read-out: Control effect (%) Wheat powdery mildew.
Text: as §1
Wheat powdery mildew: two-leaf stage potted wheat seedling with uniform growth was selected and made foliar spray treatment with 5% EC, the blank control sprayed with clean water was additionally arranged, three replicates were carried out. After 24 h, the leaves of the host plants were inoculated by shake-down method with sporangial suspensions of the fungi wheat powdery mildew (Erysiphe graminis), the plants were stored in a greenhouse (25±1° C.). After 7 days, the screening results were investigated according to the disease incidence condition of blank control.
as §2, §3

The next experiment deals with cucumber powdery mildew. Put plainly: Field trial, cucumber powdery mildew. The conditions noted are these: sprayed twice. The protocol: I. Cucumber Powdery Mildew Test Method:
Spray method: Stein and leaf spray (Applicator: Xinkangda lithium battery electric sprayer).
Test crop: cucumber (cultivars: Tianjiao7)
The test was carried out in Shenyang, the test field was loam with rich organic matters and normal management of fertilizer and water, and no other pesticide was applied during the test.
The arrangement of the test plot was random block permutation; the area of the test plot: 15 m^2; repeat times: 3 times; spray time and frequency: period between Sep. 28, 2018 and Oct. 11, 2018, twice. Spray dosage: each treatment was repeated 3 times, the total water consumption was 8 L. No other pesticide was applied during the test. […] 15-20 days after the second treatment, the incidence of disease spots in each plot was investigated.
The incidence of disease spots in each plot was investigated by randomly selecting 4 samples/plot and 2 plants/samples, all leaves/plant, the incidence of the whole plant was recorded by counting the number of disease leaves and determining the incidence grade.
Grading standard (in units of leaves):
Grade 0: no leaf-spot area;
Grade 1: the ratio of leaf-spot area to leaf area is less than 5%;
Grade 3: the ratio of leaf-spot area to leaf area is between 6-10%;
Grade 5: the ratio of leaf-spot area to leaf area is between 11-20%;
Grade 7: the ratio of leaf-spot area to leaf area is between 21-40%;
Grade 9: the ratio of leaf-spot area to leaf area is more than 40%;
According to the relevant content of the “Guidelines for the field efficacy trials of pesticides of the People's Republic of China (PRC)”, the disease index was calculated according to the grading standard, and the control effect in a unit of % was calculated based on the disease index, and the test data of significance analysis was performed by using DPS evaluation system (DMRT).

As for `Cn1cc(C(=O)Nc2ccccc2Oc2ccc(C(F)(F)F)cc2C(F)(F)F)c(C(F)F)n1` [Compound 1], the pest or weed control at 0.5 µg/mL in experiment [1] (0.5 mg/L) is 100%. Besides, the pest or weed control at 1 µg/mL in experiment [1] (1 mg/L) was 100%. Besides, the pest or weed control at 1.5625 µg/mL worked out at 100% in experiment [1] (1.5625 mg/L) and 85% in experiment [2] (1.5625 mg/L). The pest or weed control at 2.5 µg/mL in experiment [1] (2.5 mg/L) and in experiment [2] (2.5 mg/L) was 100% in each case. The pest or weed control at 3.125 µg/mL in experiment [1] (3.1250 mg/L) and in experiment [2] (3.1250 mg/L) was 100% in each case. The pest or weed control at 6.25 µg/mL in experiment [1] (6.25 mg/L) and in experiment [2] (6.25 mg/L) was 100% throughout. In addition, the pest or weed control at 10 µg/mL in experiment [1] (10 mg/L) and in experiment [2] (10 mg/L) was 100% each time. Also, the pest or weed control at 25 µg/mL in experiment [1] (25 mg/L) and in experiment [2] (25 mg/L) was 100% in each case. Further, the pest or weed control at 100 µg/mL in experiment [1] (100 mg/L) and in experiment [2] (100 mg/L) was 100% throughout. The entries for the “Control effect (%) Cucumber powdery mildew” value in the experiment on cucumber powdery mildew (100 mg/L) and with cucumber powdery mildew (200 mg/L) were 90.0% and 96.5%, respectively.

Source of the values: patent US11548855B2, “Pyrazole amide compound and application thereof, and fungicide” (Shandong United Pesticide Industry Co. Ltd., priority 2017, dated 2023).
